# Laboratory results as given in patent US20230047224A1 (Biocomposites Limited, priority 2021, published 2023).
# Assay: In vitro elution of antibiotics from beads into PBS, quantified by LCMS
# Type: physicochemical
# Settings: beads in 4 mL PBS at 37° C, 1.5 ml exchanged per time point
# Procedure: Three grams of beads 2 were immersed in 4 mL of sterile phosphate-buffered saline (PBS) at 37° C. At each time point, 1.5 ml of the solution was sampled and replenished with fresh PBS. The samples were then syringe filtered using a 0.2 μm 13 mm PES syringe tilter into 2 mL amber glass vials.
# Quantification of eluted antibiotics was measured using a single quadrupole mass spectrometer (MS) coupled to a 1260 infinity II series liquid chromatography stack (LCMS) (Agilent Technologies). Depending on the concentration, samples were analysed either neat or diluted to ensure values fell within the linear range of the standard curves. Concentrations were calculated from peak areas using standard curves developed from dilutions of antibiotic prepared to known concentrations. Separation was conducted with a Poroshell 120-SB-C18 column ([…]).
# LCMS conditions were Buffer A was 99.9% H2O, 0.1% Heptafluorobutyric Acid and B was 99.9% Acetonitrile (CAN), 0.1% % Heptafluorobutyric Acid. The gradient was held with 30.0% B for 2 min before increasing linearly to 95.0% over 5 min. The 100% B was maintained for a further 1 min before rapid equilibration in 100% A. The flow rate was constant at 0.3 mL/min.
# The gas temperature in the source was 325° C. with a flow rate of 9 L/min. The nebulizer pressure was 35 pounds per square inch and the capillary voltage […]. Fragmentor and collision energy voltages were optimized for each antibiotic.
substance,measurement,setting,value
tobramycin sulfate,Elution concentration,Day 1,7046.208 µg/mL
same,Elution concentration,Day 3,4693.264 µg/mL
same,Elution concentration,Day 4,3130.589 µg/mL
same,Elution concentration,Day 7,1972.743 µg/mL
same,Elution concentration,Day 8,1058.751 µg/mL
same,Elution concentration,Day 9,574.1567 µg/mL
same,Elution concentration,Day 10,354.742 µg/mL
same,Elution concentration,Day 11,216.352 µg/mL
same,Elution concentration,Day 14,135.2563 µg/mL
same,Elution concentration,Day 15,109.8367 µg/mL
same,Elution concentration,Day 17,15.486 µg/mL
same,Elution concentration,Day 18,9.978 µg/mL
same,Elution concentration,Day 21,7.125 µg/mL
same,Elution concentration,Day 22,5.194 µg/mL
same,Elution concentration,Day 23,3.866 µg/mL
same,Elution concentration,Day 24,3.277 µg/mL
same,Elution concentration,Day 25,2.913 µg/mL
same,Elution concentration,Day 29,2.833 µg/mL
same,Elution concentration,Day 30,2.598 µg/mL
same,Elution concentration,Day 31,2.454 µg/mL
